Assay: Solubility of cyclodextrins in an aqueous gelatin/glycerin solution
Format: physicochemical
Procedure: The solubility of β-, γ and hydroxypropyl-β-(HPβ) cyclodextrin in the solution containing gelatin was verified. This study was conducted by dissolving quantities of 2.5% or of 5% (W/V) of β-, γ or hydroxypropyl-β-(HPβ) cyclodextrin in an aqueous solution containing 36% (W/W) of gelatin and 15% (W/W) of anhydrous glycerin.

[1] = 5% (W/V) cyclodextrin in aqueous solution containing 36% (W/W) gelatin and 15% (W/W) anhydrous glycerin

| Compound | solubility in the solution containing gelatin (2.5% (W/V) cyclodextrin in aqueous solution containing 36% (W/W) gelatin and 15% (W/W) anhydrous glycerin) | solubility in the solution containing gelatin [1] |
| --- | --- | --- |
| OC[C@H]1O[C@@H]2O[C@H]3[C@H](O)[C@@H](O)[C@@H](O[C@H]4[C@H](O)[C@@H](O)[C@@H](O[C@H]5[C@H](O)[C@@H](O)[C@@H](O[C@H]6[C@H](O)[C@@H](O)[C@@H](O[C@H]7[C@H](O)[C@@H](O)[C@@H](O[C@H]8[C@H](O)[C@@H](O)[C@@H](O[C@H]1[C@H](O)[C@H]2O)O[C@@H]8CO)O[C@@H]7CO)O[C@@H]6CO)O[C@@H]5CO)O[C@@H]4CO)O[C@@H]3CO [β-cyclodextrin] | soluble | opalescent mixture |
| OC[C@H]1O[C@@H]2O[C@H]3[C@H](O)[C@@H](O)[C@@H](O[C@H]4[C@H](O)[C@@H](O)[C@@H](O[C@H]5[C@H](O)[C@@H](O)[C@@H](O[C@H]6[C@H](O)[C@@H](O)[C@@H](O[C@H]7[C@H](O)[C@@H](O)[C@@H](O[C@H]8[C@H](O)[C@@H](O)[C@@H](O[C@H]9[C@H](O)[C@@H](O)[C@@H](O[C@H]1[C@H](O)[C@H]2O)O[C@@H]9CO)O[C@@H]8CO)O[C@@H]7CO)O[C@@H]6CO)O[C@@H]5CO)O[C@@H]4CO)O[C@@H]3CO [γ-cyclodextrin] | – | soluble |
| hydroxypropyl-β-cyclodextrin | – | soluble |

Reference: patent publication US9168229B2, “Soft gelatin capsules” (ALTERGON S.A., priority 2005, dated 2015)
